From US20220153732A1, “PROTEIN SECRETION INHIBITORS” (KEZAR LIFE SCIENCES, priority 2019, published 2022)
Read-outs that look alike come from different tables or passages of the source.

Experiments:
Type in all cases: cell-based
[1] = tested on: HER3-ss+4aa/Gaussia Luciferase; assay: Dox-Induced Her3-ss-Gluc Assay; settings: 293FRT/TO cells, read-out: 24 hr Dox Inducible Her3(ss + 4)Gluc 293FRT/TO: Mean IC50
Outline: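 Stable T-REx cell line carrying a doxycycline-regulated HER3-ss+4aa/Gaussia luciferase insert, plated the day before assay. Compound dilutions in DMSO/media with doxycycline added, then incubated at 37° C., 5% CO2. Stereoisomer mixtures tested where stereochemistry is not drawn.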

[2] = tested on: PD1-ss+10aa/Gaussia Luciferase; assay: Dox-Induced PD1-ss-Gluc Assay; settings: 293FRT/TO cells, read-out: 24 hr Dox Inducible PD1ssGluc 293FRT/TO: Mean IC50
Outline: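 Stable cell line carrying PD1-ss+10aa/Gaussia luciferase cDNA under T-REx (doxycycline-inducible) control, plated the day before assay. Compound dilutions in DMSO/media containing doxycycline added and incubated at 37° C, 5% CO2. Undefined stereocentres: data refer to stereoisomer mixtures.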

[3] = tested on: human multiple myeloma cell line U266B1; assay: U266 Cell Viability Assay; settings: U-266, 48 hr, U266B1 cells, Celltiter-Glo, read-out: 48 hr U266 Viability Celltiter-Glo: Mean EC50
Outline: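 U266B1 myeloma cells treated with compound dilutions in DMSO/media for 48 h at 37 °C, 5% CO2. Viability read by CellTiter-Glo luminescence. Stereochemically undefined structures were tested as stereoisomer mixtures.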

[4] = tested on: TNFα-FL/Gaussia Luciferase; assay: Dox Induced TNFα-FL-Gluc Assay; settings: 293FRT/TO cells, read-out: 24 hr Dox Inducible TNFaFLGluc 293FRT/TO: Mean IC50
Outline: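 A stable T-REx cell line carrying doxycycline-inducible TNFα-FL/Gaussia luciferase was plated the day before assay. Compound dilutions in DMSO/media containing doxycycline were then added and incubated at 37° C, 5% CO2.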

[5] = tested on: human multiple myeloma cell line NCI-H929; assay: H929 Cell Viability Assay; settings: 48 hr, NCI-H929 cells, Celltiter-Glo, read-out: 48 hr H929 Viability Celltiter-Glo: Mean EC50
Procedure: Plates were incubated at 37° C., 5% CO2 for 48 hours. After 48 hours, Celltiter-Glo® (Promega) was added to each well and luciferase signal was quantified using Tecan Infinite M1000 Pro for cell viability determination.
For chemical structures that include one or more stereoisomers, but are illustrated without indicating stereochemistry, the assay data refers to a mixture of stereoisomers.

[6] = tested on: IL-2-FL/Gaussia Luciferase; assay: Dox Induced IL2-FL-Gluc Assay; settings: 293FRT/TO cells, read-out: 24 hr Dox Inducible IL2FLGIuc 293FRT/TO: Mean IC50
Outline: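 Stable T-REx cell line expressing doxycycline-inducible IL-2-FL/Gaussia luciferase cDNA, plated the day before assay. Compound dilutions in DMSO/media containing doxycycline added and incubated at 37° C., 5% CO2. Unspecified stereochemistry means data refer to a stereoisomer mixture.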

[7] = 24 hr doxycycline induction, Gaussia luciferase signal

| SMILES | IC50 [1, 7] [µM] | IC50 [2, 7] [µM] | EC50 [3] [µM] | IC50 [4, 7] [µM] | EC50 [5] [µM] | IC50 [6, 7] [µM] | IC50 ([1]; 24 hr, doxycycline-induced) [µM] | IC50 ([2]; 24 hr, doxycycline-induced) [µM] | IC50 ([4]; 24 hr, doxycycline-induced) [µM] | IC50 ([6]; 24 hr, doxycycline-induced) [µM] |
| --- | --- | --- | --- | --- | --- | --- | --- | --- | --- | --- |
| O=C(Nc1nc(C2Cc3ccccc3C2)cs1)c1cccn1Cc1ccncc1 [Compound A281] | 0.817 | 0.244 | > 25 | 1.95 | 11 | 1.16 |  |  |  |  |
| O=C(Nc1nc(C2CCN(c3ccccc3)CC2)cs1)c1cccn1Cc1ccncc1 [Compound A282] | 0.864 | 0.324 | 12.5 | 4.66 | 7.08 | 1.51 |  |  |  |  |
| O=C(Nc1nc(C2CCc3ccccc3O2)cs1)c1cccn1Cc1ccncc1 (stereo not drawn) [Compound A283] | 3.07 | 1.35 | > 25 | 7.18 | 23 | 3.87 |  |  |  |  |
| O=C(Nc1nc(C2Cc3ccccc3C2)cs1)c1cccn1CCCc1ccncc1 [Compound A284] | 1.24 | 0.767 | 6.1 | 4.07 | 4.92 | 2.32 |  |  |  |  |
| O=C(Nc1nc(C2CCN(c3ccccc3)CC2)cs1)c1cccn1CCCc1ccncc1 [Compound A285] | 1.84 | 1.23 | 16.7 | 16.1 | 17.8 | 2.86 |  |  |  |  |
| O=C(Nc1nc(C2CCc3ccccc3O2)cs1)c1cccn1CCCc1ccncc1 (stereo not drawn) [Compound A286] | 2.42 | 1.28 | 15.7 | 6.17 | 9.57 | 3.93 |  |  |  |  |
| O=C(Nc1nc(C2CC(c3ccccc3)C2)cs1)c1cccn1CCCc1ccncc1 (stereo not drawn) [Compound A287] | 0.181 | 0.088 | > 25 | 1.16 | 5.06 | 0.376 |  |  |  |  |
| O=C(Nc1nc(C2Cc3ccccc3O2)cs1)c1cccn1Cc1ccncc1 (stereo not drawn) [Compound A288] | 1.26 | 0.44 | > 25 | 3.03 | 23.9 | 1.54 |  |  |  |  |
| O=C(Nc1nc([C@@H]2CCN(c3ccccc3)C2)cs1)c1cccn1Cc1ccncc1 [Compound A289] | 0.512 | 0.201 | > 25 | 3.61 | 22 | 0.856 |  |  |  |  |
| O=C(Nc1nc([C@H]2CCN(c3ccccc3)C2)cs1)c1cccn1Cc1ccncc1 [Compound A290] | 0.648 | 0.261 | 20.8 | 4.02 | 15.2 | 1.4 |  |  |  |  |
| O=C(Nc1nc([C@@H]2CCN(Cc3ccccc3)C2)cs1)c1cccn1Cc1ccncc1 [Compound A291] | 5.28 | 0.918 | 22.5 | > 25 | > 25 | 6.72 |  |  |  |  |
| CC(C)(/C=C/c1ccccc1)c1csc(NC(=O)c2cccn2Cc2ccncc2)n1 [Compound A293, N-(4-(2-methyl-4-phenylbut-3-en-2-yl)thiazol-2-yl)-1-(pyridin-4-ylmethyl)-1H-pyrrole-2-carboxamide] |  |  | > 25 |  | 11.4 |  | 0.632 | 0.367 | 3.65 | 0.619 |
| O=C(Nc1nc(C2=CC(c3ccccc3)CCC2)cs1)c1cccn1Cc1ccncc1 (stereo not drawn) [Compound A294] |  |  | > 25 |  | > 25 |  | 1.05 | 0.499 | 4.44 | 0.939 |
